# According to patent US20140018316A1, “OPHTHALMIC PHARMACEUTICAL COMPOSITION” (Hayashibara Co., Ltd., priority 2005, published 2014):
# Test system: circular corneal fragment extracted from a pig eye ball
# Assay: Corneal walleye/cloudiness and edema of pig corneal fragments soaked in test or control solutions
# Parameters: degree of corneal walleye/cloudiness (relative value): scale not given here; key to corneal edema: ◯: Corneal edema was observed.; —: No corneal edema was observed
# Details: for corneal edema / degree of corneal walleye/cloudiness (relative value): 100 mM in physiological saline
# Experimental: Experiment to examine the influence of cyclic tetrasaccharide on corneal walleye/cloudiness was conducted as follows: A physiological saline containing 100 mM cyclic tetrasaccharide was previously prepared for use as a test solution by dissolving a cyclic tetrasaccharide crystal, pentahydrate, which had been prepared by the later described method in Example for Reference 2. As a positive control solution, it was prepared a physiological saline containing 100 mM α,α-trehalose, a reagent grade specimen, commercialized by Hayashibara Biochemical Laboratories, Inc., Okayama, Japan; and as a negative control solution, physiological saline was used. Two milliliters of any one of the above three kinds of aqueous solutions were added to respective two wells in a commercialized 24-well culture plate. To each well in each culture plate a circular corneal fragment, which had been extracted from a pig eye ball obtained from a slaughterhouse by using a trephine for corneal transplantation, was placed and macroscopically and microscopically observed for changing in both the degree of corneal walleye/cloudiness and the change of corneal shape such as corneal edema. The macroscopic and microscopic observations were done just after the corneas were placed in the wells at (0) and at 1, 2, 6, 24, 48 and 72 hours after their placing. The methods of macroscopic and microscopic observations and the analysis of the time course change of corneal walleye/cloudiness were conducted by the same ones as used in Experiment 1. Tables 3 and 4 show the transition of corneal walleye/cloudiness and that of the corneal edema, respectively.
compound,measurement,setting,value
"OCC1OC2OCC3O[C@H](O[C@H]4C(O)C(CO)OC(OCC5O[C@H](O[C@@H](C1O)C2O)C(O)C(O)[C@@H]5O)C4O)C(O)C(O)[C@@H]3O (stereo partly drawn) [Test solution, cyclo{→6)-α-D-glucopyranosyl-(1→3)-α-D-glucopyranosyl-(1→6)-α-D-glucopyranosyl-(1→3)-α-D-glucopyranosyl-(1→}]",corneal edema,1 hour,—
same,degree of corneal walleye/cloudiness (relative value),1 hour,11
same,corneal edema,2 hours,—
same,degree of corneal walleye/cloudiness (relative value),2 hours,11
same,corneal edema,6 hours,—
same,degree of corneal walleye/cloudiness (relative value),6 hours,13
same,corneal edema,24 hours,—
same,degree of corneal walleye/cloudiness (relative value),24 hours,16
same,corneal edema,48 hours,—
same,degree of corneal walleye/cloudiness (relative value),48 hours,16
same,corneal edema,72 hours,—
same,degree of corneal walleye/cloudiness (relative value),72 hours,19
same,corneal edema,time 0,—
same,degree of corneal walleye/cloudiness (relative value),time 0,10
same,corneal edema (in words),"100 mM, up to 72 hours",No occurrence of corneal edema was observed
